Experiment [1] addresses Calcium/calmodulin-dependent protein kinase type 1G (Homo sapiens) (UniProt Q96NX5). Description: Inhibition of wild-type human partial length CAMK1G (M1 to A342 residues) expressed in bacterial expression system at 1 uM by Kinomescan method relative to control.
Experiment [2] deals with Ephrin type-B receptor 2 (Homo sapiens) (UniProt P29323). Description: Inhibition of wild-type human partial length EPHB2 (I597 to L902 residues) expressed in bacterial expression system at 1 uM by Kinomescan method relative to control.
The target of experiment [3] is Serine/threonine-protein kinase haspin (Homo sapiens) (UniProt Q8TF76). In words: Inhibition of wild-type human partial length HASPIN (I452 to K798 residues) expressed in mammalian expression system at 1 uM by Kinomescan method relative to control.
For experiment [4], the target named is LIM domain kinase 1 (Homo sapiens) (UniProt P53667). Description: Inhibition of wild-type human full length LIMK1 (M1 to D647 residues) expressed in bacterial expression system at 1 uM by Kinomescan method relative to control.
Chain of LIM domain kinase 1 (Homo sapiens) (P53667 whole entry, looked up, the tested form may be a part): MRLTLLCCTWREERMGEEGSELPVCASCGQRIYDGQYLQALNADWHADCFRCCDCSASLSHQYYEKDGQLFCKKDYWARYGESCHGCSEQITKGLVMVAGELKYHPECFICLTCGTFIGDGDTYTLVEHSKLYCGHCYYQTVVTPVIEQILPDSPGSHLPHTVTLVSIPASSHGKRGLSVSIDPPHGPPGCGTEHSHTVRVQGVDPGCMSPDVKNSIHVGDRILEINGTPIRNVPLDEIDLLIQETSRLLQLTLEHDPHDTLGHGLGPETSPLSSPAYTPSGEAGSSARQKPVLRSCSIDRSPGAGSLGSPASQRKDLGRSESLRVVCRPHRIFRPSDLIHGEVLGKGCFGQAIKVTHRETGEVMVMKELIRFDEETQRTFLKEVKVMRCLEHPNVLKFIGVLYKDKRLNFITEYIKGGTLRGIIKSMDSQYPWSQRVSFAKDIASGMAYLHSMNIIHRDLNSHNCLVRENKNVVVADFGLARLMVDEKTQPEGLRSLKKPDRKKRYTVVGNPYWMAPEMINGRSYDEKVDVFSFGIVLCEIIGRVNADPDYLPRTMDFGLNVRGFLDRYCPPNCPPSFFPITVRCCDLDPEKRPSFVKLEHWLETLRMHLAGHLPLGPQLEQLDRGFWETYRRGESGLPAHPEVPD
Experiment [5] has as its target Tyrosine-protein kinase Mer (Homo sapiens) (UniProt Q12866). In words: Inhibition of wild-type human partial length MERTK (R557 to L884 residues) expressed in bacterial expression system at 1 uM by Kinomescan method relative to control.
Experiment [6] has as its system Hepatocyte growth factor receptor (Homo sapiens), P08581 [M1250T]. In words: Inhibition of human partial length MET M1250T mutant (D1010 to S1367 residues) expressed in bacterial expression system at 1 uM by Kinomescan method relative to control.
Experiment [7] has as its target Mitogen-activated protein kinase 11 (Homo sapiens) (UniProt Q15759). Description: Inhibition of wild-type human full length p38-beta (M1 to Q364 residues) expressed in bacterial expression system at 1 uM by Kinomescan method relative to control.
Experiment [8] addresses Ribosomal protein S6 kinase alpha-2 (Homo sapiens) (UniProt Q15349). Description: Inhibition of wild-type human partial length C-terminal RSK3 kinase domain 2 (V403 to K700 residues) expressed in bacterial expression system at 1 uM by Kinomescan method relative to control.
The target in experiment [9] is Serine/threonine-protein kinase 33 (Homo sapiens) (UniProt Q9BYT3). Description: Inhibition of wild-type human full length STK33 (M1 to L514 residues) expressed in bacterial expression system at 1 uM by Kinomescan method relative to control.
For experiment [10], the target named is Serine/threonine-protein kinase 36 (Homo sapiens) (UniProt Q9NRP7). In words: Inhibition of wild-type human partial length STK36 (M1 to T271 residues) expressed in bacterial expression system at 1 uM by Kinomescan method relative to control.
In experiment [11] the target is Serine/threonine-protein kinase ULK2 (Homo sapiens) (UniProt Q8IYT8). Description: Inhibition of wild-type human partial length ULK2 (M1 to S301 residues) expressed in mammalian expression system at 1 uM by Kinomescan method relative to control.
For experiment [12], the target named is Tyrosine-protein kinase ABL2 (Homo sapiens) (UniProt P42684). In words: Inhibition of wild-type human ABL2 (A248 to G542 residues) expressed in bacterial expression system at 10 uM by Kinomescan method relative to control.
Chain of Tyrosine-protein kinase ABL2 (Homo sapiens) (P42684 whole entry, the tested form may be a part): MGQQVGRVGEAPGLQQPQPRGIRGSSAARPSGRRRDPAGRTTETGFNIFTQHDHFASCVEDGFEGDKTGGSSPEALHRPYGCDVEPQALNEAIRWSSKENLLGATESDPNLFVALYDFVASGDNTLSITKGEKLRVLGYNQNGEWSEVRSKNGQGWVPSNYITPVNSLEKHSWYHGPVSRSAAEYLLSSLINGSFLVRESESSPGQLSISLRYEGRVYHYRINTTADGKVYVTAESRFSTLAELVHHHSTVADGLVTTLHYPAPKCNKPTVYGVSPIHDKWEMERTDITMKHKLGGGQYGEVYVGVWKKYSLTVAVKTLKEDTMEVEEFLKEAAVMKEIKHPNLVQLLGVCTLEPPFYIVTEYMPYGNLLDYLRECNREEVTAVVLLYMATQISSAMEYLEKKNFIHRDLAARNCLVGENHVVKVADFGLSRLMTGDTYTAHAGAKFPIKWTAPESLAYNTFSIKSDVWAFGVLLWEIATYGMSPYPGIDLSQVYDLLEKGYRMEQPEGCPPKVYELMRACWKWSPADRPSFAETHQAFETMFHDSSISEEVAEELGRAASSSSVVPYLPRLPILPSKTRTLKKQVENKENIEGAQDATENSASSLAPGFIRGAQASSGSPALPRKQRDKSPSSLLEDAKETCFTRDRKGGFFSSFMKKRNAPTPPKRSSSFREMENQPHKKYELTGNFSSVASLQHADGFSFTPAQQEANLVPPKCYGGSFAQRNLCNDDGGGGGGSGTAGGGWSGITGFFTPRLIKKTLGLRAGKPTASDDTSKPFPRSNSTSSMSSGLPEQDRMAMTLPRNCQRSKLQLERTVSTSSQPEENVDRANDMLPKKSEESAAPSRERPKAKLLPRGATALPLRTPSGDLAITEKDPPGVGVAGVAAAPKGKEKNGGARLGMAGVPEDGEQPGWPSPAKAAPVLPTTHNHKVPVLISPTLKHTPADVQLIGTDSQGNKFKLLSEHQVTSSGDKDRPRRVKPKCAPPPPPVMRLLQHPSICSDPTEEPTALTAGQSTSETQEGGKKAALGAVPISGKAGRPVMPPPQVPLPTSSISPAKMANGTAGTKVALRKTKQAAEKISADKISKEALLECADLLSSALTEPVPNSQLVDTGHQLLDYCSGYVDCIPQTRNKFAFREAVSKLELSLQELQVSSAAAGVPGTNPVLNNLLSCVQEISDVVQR
For experiment [13], the target named is Activin receptor type-1 (Homo sapiens) (UniProt Q04771). In words: Inhibition of wild-type human ACVR1 (C188 to C509 residues) expressed in bacterial expression system at 10 uM by Kinomescan method relative to control.
In experiment [14] the target is Tyrosine-protein kinase receptor UFO (Homo sapiens) (UniProt P30530). In words: Inhibition of wild-type human partial length AXL (R497 to Y821 residues) expressed in bacterial expression system at 10 uM by Kinomescan method relative to control.
The test system of experiment [15] is Epidermal growth factor receptor (Homo sapiens), P00533 [UNDEFINED MUTATION]. Description: Inhibition of human partial length EGFR L747-S752del/P753S mutant expressed in bacterial expression system at 10 uM by Kinomescan method relative to control.
Experiment [16] has as its target Focal adhesion kinase 1 (Homo sapiens) (UniProt Q05397). Description: Inhibition of wild-type human partial length FAK (D402 to R696 residues) expressed in bacterial expression system at 10 uM by Kinomescan method relative to control.
Experiment [17] addresses Fibroblast growth factor receptor 4 (Homo sapiens) (UniProt P22455). In words: Inhibition of wild-type human partial length FGFR4 (G402 to E713 residues) expressed in bacterial expression system at 10 uM by Kinomescan method relative to control.
Experiment [18] deals with Insulin-like growth factor 1 receptor (Homo sapiens) (UniProt P08069). Description: Inhibition of wild-type human partial length IGF1R (L972 to D1294 residues) expressed in bacterial expression system at 10 uM by Kinomescan method relative to control.
The target in experiment [19] is Tyrosine-protein kinase JAK1 (Homo sapiens) (UniProt P23458). In words: Inhibition of wild-type human partial length JAK1 JH1 catalytic domain (V856 to K1154 residues) expressed in bacterial expression system at 10 uM by Kinomescan method relative to control.
Experiment [20] has as its target Mast/stem cell growth factor receptor Kit (Homo sapiens) (UniProt P10721). In words: Inhibition of wild-type human partial length KIT (I571 to D952 residues) expressed in bacterial expression system at 10 uM by Kinomescan method relative to control.
The target in experiment [21] is LIM domain kinase 1 (Homo sapiens) (UniProt P53667). In words: Inhibition of wild-type human full length LIMK1 (M1 to D647 residues) expressed in bacterial expression system at 10 uM by Kinomescan method relative to control.
Experiment [22] deals with MAP kinase-activated protein kinase 5 (Homo sapiens) (UniProt Q8IW41). Description: Inhibition of wild-type human partial length MAPKAPK5 (M1 to D322 residues) expressed in mammalian expression system at 10 uM by Kinomescan method relative to control.
Experiment [23] addresses MAP/microtubule affinity-regulating kinase 3 (Homo sapiens) (UniProt P27448). In words: Inhibition of wild-type human full length MARK3 (M1 to L729 residues) expressed in bacterial expression system at 10 uM by Kinomescan method relative to control.
Experiment [24] concerns the target Mitogen-activated protein kinase 13 (Homo sapiens) (UniProt O15264). Description: Inhibition of wild-type human full length p38-delta (M1 to L365 residues) expressed in bacterial expression system at 10 uM by Kinomescan method relative to control.
Experiment [25] concerns the target Serine/threonine-protein kinase PknB (Mycobacterium tuberculosis) (UniProt P9WI81). Description: Inhibition of wild-type Mycobacterium tuberculosis partial length PKNB (M1 to G279 residues) expressed in mammalian expression system at 10 uM by Kinomescan method relative to control.
Experiment [26] deals with Serine/threonine-protein kinase RIO2 (Homo sapiens) (UniProt Q9BVS4). Description: Inhibition of wild-type human partial length RIOK2 (M1 to D313 residues) expressed in mammalian expression system at 10 uM by Kinomescan method relative to control.
Chain of Serine/threonine-protein kinase RIO2 (Homo sapiens) (Q9BVS4 whole entry, looked up, the tested form may be a part): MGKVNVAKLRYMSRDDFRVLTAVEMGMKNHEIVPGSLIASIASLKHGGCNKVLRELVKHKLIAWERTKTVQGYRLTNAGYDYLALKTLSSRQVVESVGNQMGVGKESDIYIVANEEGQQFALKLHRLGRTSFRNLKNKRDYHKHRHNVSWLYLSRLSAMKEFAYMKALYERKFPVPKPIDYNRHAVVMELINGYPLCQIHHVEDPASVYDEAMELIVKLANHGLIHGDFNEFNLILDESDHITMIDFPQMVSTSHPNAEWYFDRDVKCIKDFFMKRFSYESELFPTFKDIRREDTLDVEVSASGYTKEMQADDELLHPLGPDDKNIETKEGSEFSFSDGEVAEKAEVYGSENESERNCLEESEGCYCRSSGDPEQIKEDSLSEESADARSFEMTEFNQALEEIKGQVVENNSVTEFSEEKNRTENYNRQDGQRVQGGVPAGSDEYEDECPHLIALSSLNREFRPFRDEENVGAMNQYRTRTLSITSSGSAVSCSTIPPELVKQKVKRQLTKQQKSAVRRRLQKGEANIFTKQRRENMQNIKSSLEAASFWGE
Experiment [27] has as its target Ribosomal protein S6 kinase alpha-6 (Homo sapiens) (UniProt Q9UK32). In words: Inhibition of wild-type human partial length N-terminal RSK4 kinase domain 1 (M1 to E397 residues) expressed in mammalian expression system at 10 uM by Kinomescan method relative to control.

Structures are written as SMILES.

Chain of Mitogen-activated protein kinase 11 (Homo sapiens) (Q15759 whole entry, the tested form may be a part): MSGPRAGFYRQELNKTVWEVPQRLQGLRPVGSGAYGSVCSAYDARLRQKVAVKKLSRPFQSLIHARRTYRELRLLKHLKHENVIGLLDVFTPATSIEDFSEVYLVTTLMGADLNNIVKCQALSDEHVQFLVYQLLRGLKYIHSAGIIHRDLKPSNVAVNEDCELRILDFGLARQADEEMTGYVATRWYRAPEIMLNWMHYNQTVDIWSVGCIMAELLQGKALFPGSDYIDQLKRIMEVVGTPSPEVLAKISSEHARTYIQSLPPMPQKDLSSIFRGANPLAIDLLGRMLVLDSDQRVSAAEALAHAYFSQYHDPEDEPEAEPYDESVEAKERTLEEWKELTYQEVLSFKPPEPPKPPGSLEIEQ
Chain of Focal adhesion kinase 1 (Homo sapiens) (Q05397 2-1052 limits assumed): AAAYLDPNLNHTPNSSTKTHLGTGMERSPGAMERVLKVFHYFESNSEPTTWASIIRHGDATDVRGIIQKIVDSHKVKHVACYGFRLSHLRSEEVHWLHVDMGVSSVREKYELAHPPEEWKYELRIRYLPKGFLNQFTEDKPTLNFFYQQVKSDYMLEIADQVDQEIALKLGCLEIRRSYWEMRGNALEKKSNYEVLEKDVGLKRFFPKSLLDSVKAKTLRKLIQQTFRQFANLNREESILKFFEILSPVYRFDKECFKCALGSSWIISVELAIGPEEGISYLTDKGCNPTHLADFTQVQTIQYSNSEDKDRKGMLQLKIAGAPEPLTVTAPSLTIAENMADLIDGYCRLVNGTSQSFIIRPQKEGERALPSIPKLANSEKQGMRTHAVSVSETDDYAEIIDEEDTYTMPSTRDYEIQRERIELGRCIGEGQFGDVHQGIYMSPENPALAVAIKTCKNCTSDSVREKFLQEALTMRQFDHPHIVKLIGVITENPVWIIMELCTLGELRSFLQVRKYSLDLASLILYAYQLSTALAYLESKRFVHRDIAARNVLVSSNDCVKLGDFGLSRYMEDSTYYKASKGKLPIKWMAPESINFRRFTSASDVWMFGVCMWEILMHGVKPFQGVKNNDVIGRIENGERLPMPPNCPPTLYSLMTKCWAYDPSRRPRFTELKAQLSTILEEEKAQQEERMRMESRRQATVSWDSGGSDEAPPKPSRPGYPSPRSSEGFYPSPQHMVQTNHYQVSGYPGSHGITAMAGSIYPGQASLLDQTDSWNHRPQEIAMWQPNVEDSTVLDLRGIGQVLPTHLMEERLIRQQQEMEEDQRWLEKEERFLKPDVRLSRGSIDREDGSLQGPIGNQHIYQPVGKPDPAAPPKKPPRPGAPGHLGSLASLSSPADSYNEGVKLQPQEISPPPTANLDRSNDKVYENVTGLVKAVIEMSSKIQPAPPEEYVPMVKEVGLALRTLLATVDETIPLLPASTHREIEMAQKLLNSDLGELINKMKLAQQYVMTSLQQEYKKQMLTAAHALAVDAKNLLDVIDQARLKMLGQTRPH
Chain of Mitogen-activated protein kinase 13 (Homo sapiens) (O15264 whole entry, the tested form may be a part): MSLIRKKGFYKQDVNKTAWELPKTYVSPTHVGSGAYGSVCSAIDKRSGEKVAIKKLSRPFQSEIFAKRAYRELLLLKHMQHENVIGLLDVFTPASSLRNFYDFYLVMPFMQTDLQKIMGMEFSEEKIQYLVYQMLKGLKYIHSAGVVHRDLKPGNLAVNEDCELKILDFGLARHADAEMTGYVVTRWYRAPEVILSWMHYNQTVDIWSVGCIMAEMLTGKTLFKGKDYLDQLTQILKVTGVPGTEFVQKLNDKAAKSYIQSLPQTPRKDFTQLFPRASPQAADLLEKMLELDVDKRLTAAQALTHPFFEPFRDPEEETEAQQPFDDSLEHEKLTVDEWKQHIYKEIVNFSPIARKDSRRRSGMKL
Chain of Ribosomal protein S6 kinase alpha-2 (Homo sapiens) (Q15349 whole entry, the tested form may be a part): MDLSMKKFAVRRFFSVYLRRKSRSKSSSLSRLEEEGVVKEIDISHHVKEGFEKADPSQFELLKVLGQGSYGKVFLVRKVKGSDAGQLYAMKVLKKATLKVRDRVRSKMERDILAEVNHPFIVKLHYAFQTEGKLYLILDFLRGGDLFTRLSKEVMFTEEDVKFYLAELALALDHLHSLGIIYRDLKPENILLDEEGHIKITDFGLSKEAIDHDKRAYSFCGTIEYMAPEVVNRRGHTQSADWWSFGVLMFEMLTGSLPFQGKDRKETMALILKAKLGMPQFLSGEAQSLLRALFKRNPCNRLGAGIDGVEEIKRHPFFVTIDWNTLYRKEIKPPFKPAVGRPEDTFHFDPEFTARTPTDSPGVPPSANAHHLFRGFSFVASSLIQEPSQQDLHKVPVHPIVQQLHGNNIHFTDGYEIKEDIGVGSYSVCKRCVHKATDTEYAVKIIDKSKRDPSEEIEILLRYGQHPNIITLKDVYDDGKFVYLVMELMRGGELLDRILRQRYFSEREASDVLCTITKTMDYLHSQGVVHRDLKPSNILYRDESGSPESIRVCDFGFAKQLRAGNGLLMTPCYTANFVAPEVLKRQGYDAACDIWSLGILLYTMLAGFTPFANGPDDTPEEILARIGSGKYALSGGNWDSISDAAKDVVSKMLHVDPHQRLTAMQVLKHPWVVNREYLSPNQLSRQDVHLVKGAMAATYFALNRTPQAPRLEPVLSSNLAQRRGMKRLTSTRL

The inhibition is the change of the read-out against control, counted positive when it falls. As to `O=C(Nc1cccc([C@@H]2CN(c3ncnc4[nH]ccc34)CCN2CCO)c1)Nc1c(F)cccc1N1CCCC1`, the inhibition in [1] is 100%; in experiment [2], 85%; in [3], 78%; in experiment [4], 85%; in experiment [5], 31%; in experiment [6], 91%. The inhibition in [7] was 92%; in experiment [8], 97%; in experiment [9], 55%; in experiment [10] it was 100%; in experiment [11] it was 39%.

Regarding `O=C(Nc1cccc([C@H]2CCCN(c3ncnc4[nH]ccc34)C2)c1)Nc1ccccc1N1CCCC1`, the inhibition in [12] was found to be 89%; in [13] it was 100%; in [14], 16%; in [15], 87%; in experiment [16], 90%; in experiment [17], 96%. The inhibition in experiment [18] turned out to be 100%; in experiment [19], 29%; in [20], 0.25%; in experiment [21] it was 97%; in experiment [22], 100%; in experiment [23], 100%. Moreover, the inhibition in [24] amounted to 100%; in [25], 29%; in experiment [26] it was 72%; in [27] it was 34%.

These data come from ChEMBL document CHEMBL4387741, “Optimization of novel reversible Bruton's tyrosine kinase inhibitors identified using Tethering-fragment-based screens” (Bioorg Med Chem, 2019).
